From patent US20250290076A1, “EPICARDIAL CELL REGENERATION PROMOTER AND METHOD FOR PROMOTING EPICARDIAL CELL REGENERATION” (KYOTO UNIVERSITY, priority 2022, published 2025) come the findings set out here.

Some results are limits rather than exact numbers.

Common to all, as to type: cell-based
Data set [1] relates to human iPS cell-derived fetal epicardium. In words: Wound-healing assay. The note with it: from 20 hours to 24 hours after scratching; vs negative control siRNA. On the procedure:
(§1) In the siRNA transfection assay, the human iPS cell-derived fetal epicardium was seeded at a density of 0.8×10^6 cells per 10 cm dish, and transfection was carried out using RNAiMax (Invitrogen). Twenty-four hours after the transfection, the culture medium was replaced with a fresh medium. A small interfering RNA (siRNA) (sense strand: CAAGGAGUCAGACAUUUUAtt (SEQ ID NO: 1), an anti-sense strand: UAAAAUGUCUGACUCCUUGtt (SEQ ID NO: 2)) targeting CDKN1A, and a negative control siRNA No.1 (4390843) derived from Ambion Silencer Select, were used in accordance with the manufacturer's instructions.
The cells were seeded on a six-well plate and cultured until 100% confluent. Subsequently, the cell monolayer was scratched with a pipette tip, to create a physical wound manually. The scratched area was imaged 0, 12, 16, 20 and 24 hours after scratching. The area without cells at the beginning, and the remaining area after 12, 16, 20 and 24 hours, were quantified by Image-J. Thereafter, the percentage of the scratched area into which migrating cells reassembled (the percentage of the wound-closed area) was calculated, with respect to the scratched area.
Further, the wound-healing assay was performed for the human iPS cell-derived fetal epicardium which had been subjected to the transfection assay using each siRNA. […]

Another data set deals with human epicardial cells. Briefly: Colony formation assay. The following applies: colony formation for 14 days after siRNA transfection; vs negative control siRNA. How it is done: as §1
[…] Thereafter, the colony was fixed with 4% PFA, stained with crystal violet, and counted by Image-J.
The colony formation assay was carried out in the same manner, in order to measure the viability of the human epicardial cells.

For data set [2], the system named is human iPS cell-derived fetal epicardium. In words: Cell proliferation curve assay. The note with it: cell proliferation curves for 7 days after siRNA transfection; vs negative control siRNA. On the procedure:
as §1
The cell proliferation was evaluated by the time-course curve of the proliferation of the cells on a six-well plate. The cells were seeded at a density of 4 ×10^4 cells per well, and the total number of cells was counted using trypan blue for 8 days at intervals of 24 hours. The cell proliferation curves were generated by plotting the number of cells against time. After seeding, the cells were fixed with 4% paraformaldehyde (PFA), and stained with crystal violet on the days the cells were counted. The values were represented as the cell proliferation rate of the cells proliferated in the presence of 10% FBS. “0%” refers to the number of cells on day 0. […]

The subject of another data set is CDKN1A. In words: siRNA transfection assay, relative CDKN1A mRNA expression by quantitative RT-PCR. The following applies: human iPS cell-derived fetal epicardium; vs negative control siRNA; normalized with GAPDH. On the procedure: as §1
RNAs were extracted using QIAzol lysis reagent (manufactured by QIAGEN N.V.), and cDNA was synthesized from the total RNA using ReverTra Ace qPCR RT Master Mix with gDNA Remover (manufactured by TOYOBO Co., Ltd.). Subsequently, quantitative RT-PCR was performed using Thunderbird SYBR qPCR Mix (manufactured by TOYOBO Co., Ltd.)), in One Step Real-Time PCR System (Applied Biosystems). The gene expression results were quantified by the AACt method, and normalized with GAPDH.
The primers used are as follows. […]
The human iPS cell-derived fetal epicardium was subjected to siRNA transfection assay, using a siRNA (siCDKN1A) targeting CDKN1A or a negative control siRNA (control), and the relative mRNA expression levels of CDKN1A were measured by quantitative RT-PCR.

For data set [3], the system named is human iPS cell-derived fetal epicardium. In words: Transcriptome analysis for gene signature of cell quiescence by RNA sequencing. The following applies: compared to human iPS cell-derived fetal epicardium and adult epicardium. How it is done:
as §1
The data obtained by RNA sequencing were normalized using NOISeq. The data of the adult epicardium are published for the analysis, under the GSE accession number: GSE8484085. The primary data of the RNA sequencing were processed using RStudio, for mapping and gene expression analysis. The gene expression data for searching, loading and pre-processing were processed using the Bioconductor package, NOISeq, for performing the data analysis and the differential expression analysis of the RNA sequencing data. Heatmaps for clustering differentially expressed genes (DEG) were generated, using R script.
In addition, the transcriptome analysis for detecting the gene signature of cell quiescence was carried out by RNA sequencing (FIG. 6). […]

In the case of “siCDKN1A: siRNA targeting CDKN1A; sense strand CAAGGAGUCAGACAUUUUAtt (SEQ ID NO: 1), anti-sense strand UAAAAUGUCUGACUCCUUGtt (SEQ ID NO: 2) (sense CAAGGAGUCAGACAUUUUATT; antisense UAAAAUGUCUGACUCCUUGTT; chemistry not given here)”, in data set [1], the “wound healing capacity (percentage of the wound-closed area)” value is recorded as “significant increase”. Also, in the data set with human epicardial cells, the “viability of the human epicardial cells (colony formation)” value is given as “significant increase”. In addition, the “proliferative capacity of the human epicardial cells” value in data set [2] was “significant increase”. Further, the “expression level of CDKN1A at the mRNA level as compared to that in the control” value in the data set with CDKN1A is at most 50%. Besides, the “cell quiescence gene signature” value in data set [3] is “more released from quiescence”.
